From PubChem BioAssay AID463199 (Broad Institute, 2010)
Active and inactive are the calls of the source.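 Rule for the calls: active = AC50, the dose giving half-maximal effect, exceeds a fixed cutoff for a compound that rescues yeast growth under heat; inactive = the rest, inconclusive results apart.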

Tested on: S. cerevisiae Burl-1 ts mutant growth, BacTiter-Glo, 38.5C 24 h
Test: growth induction of Burl-1 ts yeast mutant, dose response, counter-screen for SUMOylation pathway inhibitor project, whole organism, S. cerevisiae, luminescence (AID 463199)

Row | Compound | AC50
1 | c1ccc(C(c2ccccc2)N2CCN(C(c3ccccn3)c3nnnn3C3CCCC3)CC2)cc1 (stereo unspecified) | > 42 µM (inactive)
2 | O=S(=O)(NCc1ccco1)c1ccc2ccccc2c1 | > 42 µM (inactive)
3 | CCC(C)c1ccc(S(=O)(=O)N2CCN(C(=O)COc3ccc4c(C)cc(=O)oc4c3)CC2)cc1 (stereo unspecified) | > 42 µM (inactive)
4 | COc1ccccc1NC(=S)N(Cc1ccccc1)Cc1cccs1 | > 42 µM (inactive)
5 | Cc1cccc(N2CCN(CCCNC(=O)c3ccc(NC(=O)C4=CSCCO4)cc3)CC2C)c1 (stereo unspecified) | > 42 µM (inactive)
6 | COc1ccc(NC(=S)NC(=O)C2CCC2)cc1 | > 42 µM (inactive)
7 | Cc1ccc2nc(SCC(=O)Nc3cccc(S(N)(=O)=O)c3)[nH]c2c1 | > 42 µM (inactive)
8 | CCOC(=O)c1[nH]c2ccc(Br)cc2c1NC(=O)CCN1CCOCC1 | > 42 µM (inactive)
9 | C=CCC(NCCCO)c1cccc(OC)c1OC (stereo unspecified) | > 42 µM (inactive)
10 | CCOC(=O)C1=Nc2ccccc2C1=[N+]=[N-] | > 42 µM (inactive)
11 | O=C(COC(=O)CSc1ccc([N+](=O)[O-])cc1)NC1CCCCCCC1 | > 42 µM (inactive)
12 | CC(C)c1onc(C(=O)N(C)Cc2ccccc2)c1[N+](=O)[O-] | > 42 µM (inactive)
13 | CC(=O)N(C)c1ccc(N2CCOCC2)c2c1C(=O)c1ccccc1C2=O | > 42 µM (inactive)
14 | COc1ccc(C(=O)NC(=S)Nc2ccc(CN3CCCCC3)cc2)cc1Cl | > 42 µM (inactive)
15 | COc1ccc(NC(=O)c2ccc(-c3csc(C)n3)cc2)cc1 | > 42 µM (inactive)
16 | CC(=O)N1c2ccc([N+](=O)[O-])cc2NC(=O)CC1C (stereo unspecified) | > 42 µM (inactive)
17 | O=c1c2ccccc2ncn1Cc1ccc(Cl)cc1 | > 42 µM (inactive)
18 | Cc1cnc(C(=O)OC(C(=O)c2c[nH]c3ccccc23)c2ccccc2)cn1 (stereo unspecified) | > 42 µM (inactive)
19 | O=C(c1cccs1)N(C(=O)c1cccs1)c1ccc(Br)cn1 | > 42 µM (inactive)
20 | CC(NC(=O)OCc1ccccc1)C(=O)N1CC(O)CC1C(=O)O (stereo unspecified) | > 21 µM (inactive)
21 | COC(=O)[C@@H](NC(=O)Nc1ccc(S(N)(=O)=O)cc1)C(C)C | > 42 µM (inactive)
22 | COc1ccccc1NC(=O)c1nn(-c2cccc(C(F)(F)F)c2)ccc1=O | 12 µM
23 | CCOC(=O)N1CCN(c2cc3[nH]c(=S)[nH]c3cc2F)CC1 | > 42 µM (inactive)
24 | CCOc1ccc(C)cc1S(=O)(=O)n1nc(C)cc1C | > 42 µM (inactive)
25 | Cc1[nH]oc(=O)c1N=Nc1c(Cl)cccc1Cl | > 42 µM (inactive)
26 | O=C(O)COc1ccc(Br)cc1/C=N\Nc1ccccn1 | > 42 µM (inactive)

Row | Compound | AC50
27 | O=S(=O)(Cc1ccccc1)N1CCN(c2ncccn2)CC1 | > 42 µM (inactive)
28 | O=[N+]([O-])c1nn(-c2ccc(Cl)cc2)n(O)c1=NCc1ccccc1Cl | > 42 µM (inactive)
29 | Cn1nc(C(=O)NCCc2ccc(Cl)cc2)c2c1-c1ccccc1S(=O)(=O)C2 | > 42 µM (inactive)
30 | C=C(C)Cn1c(N)cc(=O)nc1SCC(=O)Nc1cccc(C(F)(F)F)c1 | > 42 µM (inactive)
31 | CCOC(=O)c1cnc2oc3ccccc3n2c1=O | > 42 µM (inactive)
32 | Cc1ccc(C(=O)c2cc([N+](=O)[O-])ccc2N2CCCCC2)cc1C | > 42 µM (inactive)
33 | CC[C@H]1CCCCc2ccccc2[C@@H](C(=O)C[C@@H](O)CC(C)=O)OC1=O | > 42 µM (inactive)
34 | Cc1cnc(C(=O)OCC(=O)Nc2ccc(C)c(S(=O)(=O)N(C)C)c2)cn1 | > 42 µM (inactive)
35 | CCOc1ccc(C(=O)Nc2ccc(C(F)(F)F)n(C)c2=O)cc1 | > 42 µM (inactive)
36 | CCOC(=O)N1CCC(Nc2nc3ccccc3n3nnnc23)CC1 | > 42 µM (inactive)
37 | CCCCCCCCc1nc(SCC(C)=O)n[nH]1 | > 42 µM (inactive)
38 | C=C(C)Cc1c(C)c(C#N)c2[nH]c3ccccc3n2c1=O | > 42 µM (inactive)
39 | CCOC(=O)C1=C(N)c2ccccc2CC1C1CCCC1 (stereo unspecified) | > 42 µM (inactive)
40 | O=c1c2ccccc2nc(SCc2ccc([N+](=O)[O-])cc2)n1CCCO | > 42 µM (inactive)
41 | C=CCSC1=C(C#N)C(c2ccc(C(C)C)cc2)CC(=O)N1 (stereo unspecified) | > 42 µM (inactive)
42 | CCc1ccc(NC(=O)N2CCC(c3ccccc3)C2)cc1 (stereo unspecified) | > 42 µM (inactive)
43 | CCOC(=O)N1CCN(C(=O)c2ccccc2-c2ccccc2)CC1 | > 42 µM (inactive)
44 | CC(=O)Nc1cccc2c1C(=O)N(c1ccccc1C)C2=O | > 42 µM (inactive)
45 | Cc1cccc(Cn2c(C(=O)OC(C)C)cc3c2ccn3C)c1 | > 42 µM (inactive)
46 | CCOc1ccccc1C(=O)N(Cc1cccs1)C1CCS(=O)(=O)C1 (stereo unspecified) | > 42 µM (inactive)
47 | CCOC(=O)N1CCN(C(=O)CNC(=O)c2nn(-c3ccc(OC)c(OC)c3)c(=O)c3ccccc23)CC1 | > 42 µM (inactive)
48 | CCc1ccc(N2C(=O)CC(N3CCC(C(=O)OC)CC3)C2=O)cc1 (stereo unspecified) | > 42 µM (inactive)
49 | Cc1ccc(C(=O)Nc2nc(-c3ccc(F)cc3)cs2)o1 | > 42 µM (inactive)
50 | COc1ccc(S(=O)(=O)Cc2ccc(C(=O)NCc3cccs3)o2)cc1 | > 42 µM (inactive)
51 | Cc1csc(=O)n1CC(=O)OCC(=O)Nc1cc([N+](=O)[O-])ccc1Cl | > 42 µM (inactive)
52 | NC(=O)NC(=O)CSc1nc(C2CCCCC2)n(-c2ccccc2)n1 | > 42 µM (inactive)

Row | Compound | AC50
53 | COc1ccc(NC(=O)COc2cc(C)cc(C)c2)cc1S(=O)(=O)N1CCCCC1 | > 42 µM (inactive)
54 | COc1ccc(C(=O)OCC(=O)c2ccc(C)c(S(=O)(=O)N3CCOCC3)c2)cc1OC | > 42 µM (inactive)
55 | Cc1c(C(=O)N2CCN(CCc3ccccc3)CC2)oc2ccccc12 | > 42 µM (inactive)
56 | COc1cc(C(=O)OCC(=O)NCc2ccccc2)cc(NC(=O)c2ccco2)c1OC | > 42 µM (inactive)
57 | COc1cc(CNCc2ccc3c(c2)OCO3)c([N+](=O)[O-])cc1OC | > 42 µM (inactive)
58 | CC(C)CCNC(=O)Nc1ccc2c(c1)N(C)C(=O)CS2 | > 42 µM (inactive)
59 | O=C(c1ccc(COc2ccccc2Cl)o1)N1N=C(C(F)F)CC1(O)C(F)F (stereo unspecified) | > 42 µM (inactive)
60 | O=C(N=C1SC2CS(=O)(=O)CC2N1c1ccc(F)c(Cl)c1)C1CC1 (stereo unspecified) | > 42 µM (inactive)
61 | COc1ccccc1NC(=O)CN(c1ccc(C)cc1)S(=O)(=O)c1c(C)n[nH]c1C | > 42 µM (inactive)
62 | CCOc1ccc(-c2nc3n(c(=O)c2C#N)CCS3)cc1 | 40.7 µM
63 | Nc1ccc(N2CCN(c3ccc(F)cc3)CC2)cc1 | > 42 µM (inactive)
64 | CCOC(=O)c1c(C)[nH]c2c1cc(O)c1ccccc12 | > 42 µM (inactive)
65 | Cc1cc(C)c(NC(=O)CNC(=O)c2cc([N+](=O)[O-])ccc2N2CCOCC2)c(C)c1 | > 42 µM (inactive)
66 | CCCSc1nc(=O)n2cccc(C)c2n1 | > 42 µM (inactive)
67 | Oc1c(Br)cc(Br)cc1/C=N/n1c(-c2ccccc2)n[nH]c1=S | > 42 µM (inactive)
68 | Cc1ccc(C)c(NC(NC(=O)c2ccccn2)C(Cl)(Cl)Cl)c1 (stereo unspecified) | > 42 µM (inactive)
69 | CCC1CCCCN1C(=O)CSc1nc2c([nH]c3ccccc32)c(=O)n1C (stereo unspecified) | > 42 µM (inactive)
70 | COc1ccc(C2SCC(=O)Nc3c2c(=O)[nH]n3C2CCCCC2)cc1 (stereo unspecified) | > 42 µM (inactive)
71 | N#CC1=C(N)OC2=C(C(=O)CCC2)C1C1CC=CCC1 (stereo unspecified) | > 42 µM (inactive)
72 | N#C/C(=C\c1cn(-c2ccccc2)nc1-c1cccnc1)c1nnc2n1CCCCC2 | > 42 µM (inactive)
73 | Cc1ccn2cc(-c3cnoc3C)nc2c1 | > 42 µM (inactive)
74 | COCCn1c(SCC(=O)Nc2nc3ccccc3s2)nnc1-c1ccoc1C | > 42 µM (inactive)
75 | CCCN1C(=O)c2ccccc2NC1c1ccc(C)cc1 (stereo unspecified) | > 42 µM (inactive)
76 | COc1ccccc1NC(=S)N(Cc1ccco1)Cc1cc2cccc(C)c2[nH]c1=O | > 42 µM (inactive)
77 | CC(C)n1c(O)c(N=Nc2ccccn2)c2ccccc21 | > 42 µM (inactive)
78 | Cc1nc2sc(C(c3ccco3)N3CCOCC3)c(O)n2n1 (stereo unspecified) | > 42 µM (inactive)

Row | Compound | AC50
79 | Nc1cc(Cl)ccc1N1CCOCC1 | > 42 µM (inactive)
80 | O=C(CSCc1ccc(Cl)cc1)N1CCCCC1 | > 42 µM (inactive)
81 | CCCOc1ccc(C(=O)NCc2ccco2)cc1 | > 42 µM (inactive)
82 | O=C1CN(C(=O)COC(=O)c2ccccc2NCc2ccco2)c2ccccc2N1 | > 42 µM (inactive)
83 | O=C(OCCCCOC(=O)c1ccccc1)c1ccccc1 | > 42 µM (inactive)
84 | NC(=O)CC(NC(=O)Cc1cccc2ccccc12)c1ccc(NCCCN2CCCC2=O)c([N+](=O)[O-])c1 (stereo unspecified) | > 42 µM (inactive)
85 | O=C(CCl)N(Cc1cc(=O)[nH]c2ccccc12)c1ccccc1 | > 42 µM (inactive)
86 | Cc1ccc2c(C)c(C(=O)N(C)C(C)c3ccncn3)oc2c1C (stereo unspecified) | > 42 µM (inactive)
87 | CC(C)(C)NC(=S)NCc1cccnc1 | > 42 µM (inactive)
88 | CCCCNS(=O)(=O)c1ccc(OC)cc1 | > 42 µM (inactive)
89 | Cc1ccc(-c2nc3c(=O)n(-c4ccccc4)c4c(c(=O)n(C)c(=O)n4C)c3o2)cc1 | > 42 µM (inactive)
90 | COc1ccc(NC(=O)CSc2nnc(-c3ccccn3)n2-c2ccccc2)cc1OC | > 42 µM (inactive)
91 | COc1ccccc1NC(=O)c1nn(C)cc1Br | > 42 µM (inactive)
92 | COc1ccc(OC)c(N(CC(=O)N2CCCC2)S(=O)(=O)c2ccccc2)c1 | > 42 µM (inactive)
93 | Cc1ccc(C(=O)NNc2ncnc3c2cnn3C)cc1 | > 42 µM (inactive)
94 | CCN(CC(=O)N1CCCCCC1)S(=O)(=O)c1ccc(Cl)cc1 | > 42 µM (inactive)
95 | COc1ccc(S(=O)(=O)NCC(=O)N(CC(=O)NCC2CCCO2)c2ccccc2C)cc1 (stereo unspecified) | > 42 µM (inactive)
96 | CC1CCN(CCNC(=O)C2CCCN(S(=O)(=O)c3cccc4nsnc34)C2)CC1 (stereo unspecified) | > 42 µM (inactive)
97 | Cc1ccc2nc(N/N=C/c3ccccc3F)nc(-c3ccccc3)c2c1 | > 42 µM (inactive)
98 | CC(C)c1cc(N2CCOCC2)n2ncc(-c3ccccc3)c2n1 | > 42 µM (inactive)
99 | O=C(CSc1nnc(-c2ccc(Br)cc2)o1)Nc1cccc2ccccc12 | > 42 µM (inactive)
100 | O=C(c1ccc2c(=O)n(Cc3ccccc3Cl)c(=S)[nH]c2c1)N1CCOCC1 | > 42 µM (inactive)
101 | O=c1[nH]c(=O)n(C2CCCO2)cc1Br (stereo unspecified) | > 42 µM (inactive)
